Results taken from patent publication US4001207A, “Tertiary-aliphatic amidazo compounds” (priority 1971, dated 1977).

Key:
[1] = Temperature of nitrogen/gas evolution, thermal stability; conditions: for temperature at which it begins to evolve nitrogen: begins to evolve nitrogen (slowly); for temperature at which it evolves nitrogen: evolves nitrogen at / above
[2] = Half-life of thermal decomposition; format: physicochemical
Procedure: (§1) It produces 179 cc. of gas per gram at 110° C. The following half-life data have been determined:
(§2) To a rapidly stirred mixture of 39.0 g. (0.2 m.) 1 -tert.-butylhydrazo-1-cyanocyclohexane, 200 ml. methylene chloride and 100 ml. water was added 14.3 g. […] The reaction was stirred an additional 15 mins. after the addition was complete. The methylene chloride layer was separated, washed twice with 50 ml. portions of saturated NaHCO3 solution, dried over anhydrous sodium sulfate, filtered and the methylene chloride evaporated on a rotating evaporator to obtain 35.0 g. of liquid product that assayed 86.5% by an ultra violet spectrophotometric analysis. Distillation gave a product, b.p. 71° C./1.2 mm. of Hg that assayed 97.6% as 1-tert.-butylazo- 1-cyanocyclohexane. The infrared spectrum was in accord with this structure. […] It produces 146 cc. of gas per gram at 130° C. The following half-life data have been determined:
The following half-life data have been determined by gas evolution technique using trichlorobenzene as the solvent: […]

[3] = cited from earlier work
[4] = background statement; cited from earlier work
[5] = Preliminary toxicological studies
From the text: The new compositions of the present invention eliminate these problems. Most of the new compositions are liquids and are soluble in petroleum hydrocarbon and most of the other common organic solvents. Thus, no dusting, metering, incorporating, mixing, and dispersing problems are encountered in using these new compositions. […] The less toxic nature of the new compositions coupled with their liquid and high solubility properties allows them to be used in many applications where IXA cannot be used.

[6] = Gas produced per gram on thermal decomposition; format: physicochemical; conditions: 110° C.
Procedure: as §1
as §2, with “C.” for “C. The following half-life data have been determined:”

[7] = Solubility in petroleum hydrocarbon and common organic solvents; format: physicochemical

SMILES: CC(C)(C)N=NC(=O)NCC(=O)O [XVII, tert.-butylazo-N-carboxymethylformamide]
- temperature at which it begins to evolve nitrogen [1]: 60 °C

SMILES: CC(C)(C)N=NC(C)(C#N)C(C)(C)C (stereo not drawn) [IX, 2-tert.-butylazo-2-cyano-3,3-dimethylbutane]
- temperature at which it begins to evolve nitrogen [1]: 95 °C

SMILES: CC(C)(C)N=NC(C)(C)C(N)=O [XXV, 2-t-butylazo-2-carbamylpropane]
- temperature at which it evolves nitrogen [1]: above 120 °C

SMILES: CC(C)CC(C#N)(CC(C)C)N=NC(C)(C)C [Example VII, 4-tert.-butylazo-4-cyano-2,6-dimethylheptane]
- temperature at which it begins to evolve nitrogen [1]: 70 °C

SMILES: CC(C)(C)N=NC(C)(C#N)CCC(=O)O (stereo not drawn) [Example X, alpha-tert.-butylazo-alpha-methyl-gamma-carboxybutyronitrile]
- half-life ([2]; 75° C.): 11.0 h
- half-life ([2]; 85° C.): 3.15 h
- temperature at which it begins to evolve nitrogen [1]: 85 °C

SMILES: CC(C)(C)NNC1(C#N)CCCCC1 [1-tert.-butylhydrazo-1-cyanocyclohexane]
- stability on exposure to air ([1]; over extended periods): evolves HCN on exposure to air over extended periods

SMILES: CC(C)(C)N=NC(=O)C(C)(C)C [Example XIX, Pivaloyl tert.-butyldiimide]
- temperature at which it evolves nitrogen [1]: 35 °C

SMILES: CC(C)CC(C)(N=NC(C)(C)C)OOC(C)(C)CCC(C)(C)OOC(C)(CC(C)C)N=NC(C)(C)C (stereo not drawn) [LXV, 2,2,5,8,8,11,11,14,17,17,decamethyl-5,14-diisobutyl-Δ^3,15-3,4,15,16-tetraaza-6,7,12,13-tetraoxaoctadecadiene]
- temperature at which it evolves nitrogen [1]: 30 °C

SMILES: CC(C)(C)N=NC(C)(C#N)C1CC1 (stereo not drawn) [Example XII, Alpha-tert-butylazo-alpha-cyclopropylpropionitrile]
- temperature at which it begins to evolve nitrogen [1]: 75 °C

SMILES: CC(C)(C#N)N=NC(C)(C)C#N [2,2'-azobisisobutyronitrile]
- solubility in most of the organic common solvents ([3]; aromatic hydrocarbons, dioxane, alcohol, ether, carbon tetrachloride): very low or limited solubility
- solubility in petroleum hydrocarbon solvents [3]: insoluble
- toxicity [4]: toxic solid

SMILES: COC(=O)CNC(=O)N=NC(C)(C)C [XVI, tert.-butylazo-N-carbmethoxymethylformamide]
- temperature at which it begins to evolve nitrogen [1]: 140 °C

SMILES: CC(C)(C#N)N=NC(C)(C)c1ccccc1 [Example XI, Alpha-(tert.-cumylazo)isobutyronitrile]
- temperature at which it begins to evolve nitrogen [1]: 55 °C

SMILES: CC(C)(C)N=NC1(C#N)CCCCC1 [IV, 1-tert.-butylazo-1-cyanocyclohexane]
- toxicity relative to IXA and its decomposition residue [5]: significantly less toxic

SMILES: CC(C)(C)N=NC(=O)c1ccccc1 [Example XX, Benzoyl tert.-butyldiimide]
- temperature at which it evolves nitrogen [1]: 25 °C

SMILES: CC(C)OC(=O)N=NC(C)(C)c1ccccc1 [Isopropyl tert.-cumylazocarboxylate]
- temperature at which it evolves nitrogen [1]: 80 °C

SMILES: CC(C)(C)N=NC1=CCCCC1 [XXIII, 1(-tert.-butylazo)cyclohexene]
- temperature at which it evolves nitrogen [1]: 60 °C

SMILES: CC(C)(C)N=NC1(C(N)=O)CCCCC1 [XXIV, 1-tert. butylazo-1-carbamylcyclohexane]
- temperature at which it evolves nitrogen [1]: above 120 °C

SMILES: CC(C)(C)N=NC(C)(C)C#N [Example I, Alpha-(tert.-butylazo) isobutyronitrile]
- t 1/2 ([2]; 78.8° C.): 10.0 h
- t 1/2 ([2]; 90° C.): 2.0 h
- t 1/2 ([2]; 100° C.): 0.54 h
- t 1/2 ([2]; 110° C.): 0.20 h
- gas produced [6]: 179 cc. of gas per gram
- solubility in petroleum solvents [7]: soluble in petroleum solvents
- toxicity relative to IXA and its decomposition residue [5]: significantly less toxic

SMILES: CC(C)(C)N=NC(N)=O [Example XIII, tert.-butylazoformamide]
- t 1/2 ([2]; 120° C., gas evolution technique, trichlorobenzene): 3.00 h
- t 1/2 ([2]; 130° C., gas evolution technique, trichlorobenzene): 0.87 h
- t 1/2 ([2]; 150° C., gas evolution technique, trichlorobenzene): 0.14 h

SMILES: CC1CC(C)(C)CC(C#N)(N=NC(C)(C)C)C1 (stereo not drawn) [VIII, 1-tert.-butylazo-1-cyano-3,3,5-trimethylcyclohexane]
- temperature at which it begins to evolve nitrogen [1]: 100 °C

SMILES: CC(C)CC(C)(N=NC(C)(C)C)OOC(C)(CC(C)C)N=NC(C)(C)C (stereo not drawn) [LVIII, Di[1-(t-butylazo)-1,3-dimethylbutyl] Peroxide]
- thermal stability / gas evolution, in words [1]: began to gas rapidly upon reaching room temperature
